Experimental data taken from the supplement of paper PMC6045584.
± gives the standard deviation of the averaged measurements.

Columns and labels:
[1] = compound: C=CCn1c(=O)c2cnc(Nc3ccc(N4CCN(C)CC4)cc3)nc2n1-c1cccc(C(C)(C)O)n1 [MK-1775]; assay: surviving fraction relative to DMSO-only wells; higher = less growth inhibition; conditions: exposure time: 5 days
How it was run: (§1)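 Viability was determined by CellTiter-Glo luminescence, expressed as surviving fraction normalised to the median of DMSO-only wells. The cells were log-phase tumour cell lines seeded at 250–500 per well in 384-well plates and, after 24 hours, exposed continuously for five days to inhibitors at 0.5, 1, 5, 10, 50, 100, 500 and 1000 nM. Three screens per line were run, keeping only lines with replicate Pearson r >0.7 and median Z' >0.3.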

[2] = compound: C[C@@H]1CN(CC(=O)Nc2ccc3c(c2)Cc2cccc(-c4cc(=O)cc(N5CCOCC5)o4)c2S3)C[C@H](C)O1; assay: as above; conditions: exposure time: 5 days
How it was run: as §1

Test System | surviving fraction ([1]; 0.5 nM) | surviving fraction ([1]; 1 nM) | surviving fraction ([1]; 5 nM) | surviving fraction ([1]; 10 nM) | surviving fraction ([1]; 50 nM) | surviving fraction ([1]; 100 nM) | surviving fraction ([1]; 500 nM) | surviving fraction ([1]; 1000 nM) | surviving fraction ([2]; 0.5 nM) | surviving fraction ([2]; 1 nM) | surviving fraction ([2]; 5 nM) | surviving fraction ([2]; 10 nM) | surviving fraction ([2]; 50 nM) | surviving fraction ([2]; 100 nM) | surviving fraction ([2]; 500 nM) | surviving fraction ([2]; 1000 nM)
SCC36 HEADNECK | 1.05 ± 0.066 | 1.08 ± 0.12 | 1.18 ± 0.065 | 0.995 ± 0.053 | 0.906 ± 0.035 | 0.739 ± 0.037 | 0.323 ± 0.029 | 0.228 ± 0.021 | 0.993 ± 0.025 | 1.02 ± 0.058 | 1.09 ± 0.086 | 1.03 ± 0.026 | 0.859 ± 0.071 | 0.896 ± 0.031 | 0.801 ± 0.045 | 0.798 ± 0.031
SCC47 HEADNECK | 1.01 ± 0.031 | 1.06 ± 0.025 | 1.11 ± 0.051 | 1.11 ± 0.08 | 0.992 ± 0.053 | 0.713 ± 0.047 | 0.238 ± 0.025 | 0.159 ± 0.014 | 1.06 ± 0.1 | 1.04 ± 0.036 | 1.1 ± 0.057 | 1.06 ± 0.075 | 1.04 ± 0.042 | 1.09 ± 0.04 | 1.05 ± 0.064 | 1.12 ± 0.093
SCC90 HEADNECK | 1.25 ± 0.31 | 1.2 ± 0.16 | 1.07 ± 0.078 | 1.12 ± 0.25 | 0.704 ± 0.034 | 0.355 ± 0.017 | 0.0583 ± 0.0068 | 0.0493 ± 0.011 | 1.01 ± 0.16 | 1.03 ± 0.11 | 1.07 ± 0.027 | 1.12 ± 0.033 | 1.02 ± 0.042 | 0.952 ± 0.077 | 0.963 ± 0.03 | 0.971 ± 0.12
SG27 HEADNECK | 1.04 ± 0.046 | 1.04 ± 0.11 | 1.08 ± 0.068 | 1.03 ± 0.11 | 0.969 ± 0.12 | 1.01 ± 0.14 | 0.853 ± 0.1 | 0.896 ± 0.061 | 1.02 ± 0.1 | 0.976 ± 0.047 | 1.13 ± 0.079 | 1.02 ± 0.15 | 0.95 ± 0.056 | 0.988 ± 0.11 | 1.01 ± 0.061 | 1.03 ± 0.1
SG28 HEADNECK | 0.987 ± 0.18 | 1.11 ± 0.066 | 1.14 ± 0.12 | 1.04 ± 0.046 | 0.698 ± 0.0084 | 0.549 ± 0.032 | 0.441 ± 0.034 | 0.558 ± 0.11 | 1.07 ± 0.081 | 1.11 ± 0.13 | 1.04 ± 0.093 | 0.986 ± 0.033 | 0.9 ± 0.054 | 0.915 ± 0.047 | 0.9 ± 0.1 | 0.87 ± 0.11
SG31 HEADNECK | 1.15 ± 0.19 | 1.03 ± 0.1 | 0.968 ± 0.097 | 0.977 ± 0.12 | 0.979 ± 0.14 | 0.789 ± 0.1 | 0.623 ± 0.074 | 0.649 ± 0.048 | 0.946 ± 0.076 | 0.916 ± 0.1 | 1.06 ± 0.17 | 0.953 ± 0.07 | 0.971 ± 0.12 | 0.964 ± 0.09 | 1.08 ± 0.087 | 1.06 ± 0.098
SG32 HEADNECK | 1.25 ± 0.072 | 1.43 ± 0.26 | 1.13 ± 0.19 | 1.14 ± 0.2 | 0.852 ± 0.074 | 0.476 ± 0.037 | 0.22 ± 0.038 | 0.19 ± 0.0027 | 1.16 ± 0.16 | 1.07 ± 0.2 | 1.12 ± 0.18 | 1.62 ± 0.39 | 0.939 ± 0.091 | 1.05 ± 0.047 | 0.74 ± 0.11 | 0.681 ± 0.082
SG43 HEADNECK | 1.22 ± 0.14 | 1.01 ± 0.11 | 1.02 ± 0.084 | 0.823 ± 0.063 | 0.906 ± 0.072 | 0.911 ± 0.06 | 0.783 ± 0.14 | 0.549 ± 0.14 | 0.871 ± 0.21 | 1.22 ± 0.069 | 1.03 ± 0.14 | 1.16 ± 0.14 | 1.37 ± 0.25 | 1.38 ± 0.36 | 1.31 ± 0.19 | 1.43 ± 0.061
SIHA CERVIX | 1.08 ± 0.03 | 1.04 ± 0.054 | 1.09 ± 0.066 | 1.08 ± 0.039 | 1.17 ± 0.085 | 1.16 ± 0.057 | 0.277 ± 0.049 | 0.0987 ± 0.013 | 1.04 ± 0.022 | 1.1 ± 0.082 | 1.09 ± 0.0035 | 1.06 ± 0.023 | 1.04 ± 0.062 | 1.08 ± 0.084 | 1.02 ± 0.11 | 0.931 ± 0.051
SJSA1 BONE | 1 ± 0.011 | 1.0057 ± 0.00058 | 1.03 ± 0.026 | 1.04 ± 0.034 | 1.02 ± 0.033 | 0.938 ± 0.049 | 0.384 ± 0.011 | 0.317 ± 0.02 | 0.993 ± 0.05 | 1.04 ± 0.03 | 1.05 ± 0.029 | 1.06 ± 0.061 | 1 ± 0.017 | 1.05 ± 0.026 | 0.9383 ± 0.0074 | 0.892 ± 0.034
SKBR3 BREAST | 1.07 ± 0.15 | 0.873 ± 0.22 | 0.975 ± 0.15 | 1.02 ± 0.15 | 0.858 ± 0.12 | 0.746 ± 0.077 | 0.308 ± 0.031 | 0.182 ± 0.0035 | 1.06 ± 0.013 | 0.979 ± 0.19 | 0.937 ± 0.22 | 0.939 ± 0.088 | 0.9 ± 0.16 | 1.05 ± 0.13 | 0.886 ± 0.07 | 0.61 ± 0.033
SNU475 LIVER | 1.05 ± 0.06 | 1.04 ± 0.032 | 1.04 ± 0.024 | 0.9893 ± 0.0081 | 0.941 ± 0.035 | 0.884 ± 0.054 | 0.58 ± 0.031 | 0.345 ± 0.033 | 0.97 ± 0.022 | 1.02 ± 0.034 | 1.007 ± 0.0086 | 1.02 ± 0.027 | 0.876 ± 0.026 | 0.96133 ± 0.00058 | 0.863 ± 0.04 | 0.669 ± 0.036
SUM44 BREAST | 1.043 ± 0.0078 | 1.08 ± 0.034 | 1.04 ± 0.023 | 1.07 ± 0.017 | 0.979 ± 0.017 | 0.561 ± 0.014 | 0.26 ± 0.0095 | 0.254 ± 0.01 | 0.936 ± 0.036 | 0.936 ± 0.034 | 0.977 ± 0.028 | 0.968 ± 0.023 | 0.911 ± 0.044 | 0.915 ± 0.067 | 0.898 ± 0.083 | 0.892 ± 0.031
SUM149 BREAST | 1.13 ± 0.077 | 1.09 ± 0.069 | 1.16 ± 0.095 | 1.12 ± 0.097 | 0.706 ± 0.025 | 0.328 ± 0.024 | 0.073 ± 0.0044 | 0.0517 ± 0.0025 | 0.874 ± 0.049 | 0.885 ± 0.1 | 0.96 ± 0.089 | 0.862 ± 0.035 | 1.01 ± 0.017 | 0.917 ± 0.029 | 0.819 ± 0.11 | 0.667 ± 0.024
SUM149.B1*.S BREAST | 1.1 ± 0.035 | 1.11 ± 0.053 | 1.1 ± 0.043 | 1.13 ± 0.017 | 1.07 ± 0.025 | 0.892 ± 0.018 | 0.198 ± 0.01 | 0.144 ± 0.0048 | 1.07 ± 0.062 | 1.06 ± 0.064 | 1.05 ± 0.025 | 1.03 ± 0.027 | 1.07 ± 0.071 | 1.05 ± 0.016 | 1.08 ± 0.045 | 1.07 ± 0.074
SUM159 BREAST | 1.06 ± 0.023 | 1.03 ± 0.021 | 1.04 ± 0.028 | 1.02 ± 0.022 | 1.01 ± 0.069 | 1.02 ± 0.057 | 0.69 ± 0.17 | 0.377 ± 0.16 | 1.08 ± 0.012 | 1.15 ± 0.11 | 1.11 ± 0.048 | 1.13 ± 0.11 | 1.11 ± 0.079 | 1.1 ± 0.023 | 1.13 ± 0.11 | 1.05 ± 0.029
